The term IC50 denotes the concentration needed to halve the response being measured. A low value points to inhibition by little substance.

Common to all, as to assay type: functional, cell-based
One test relates to PC-3. Kind of test: Cytotoxicity against human PC3 cells.
The test system of another test is LNCaP. In words: Cytotoxicity against human LNCAP cells.
A further test concerns MIA PaCa-2. Kind of test: Cytotoxicity against human MIAPaCa2 cells.
For the next test, the system named is MDA-MB-231. In words: Cytotoxicity against human MDA-MB-231 cells.
A further test deals with MCF7. Kind of test: Cytotoxicity against human MCF7 cells.
The next test concerns DU-145. In words: Cytotoxicity against human DU145 cells.

For the molecule `O=C(N/N=C\c1cn(Cc2ccc(Cl)cc2)c2ccccc12)c1c[nH]c2ccccc12`, the IC50 with PC-3 is 16.2 µM; in the test with LNCaP, over 100 µM; in the test with MIA PaCa-2, 44.3 µM; with MDA-MB-231 it was 66.4 µM; in the test with MCF7, 96.7 µM; in the test on DU-145, 52.1 µM.
For the molecule `O=C(N/N=C\c1cn(Cc2ccc(Cl)cc2)c2ccc(Br)cc12)c1c[nH]c2ccccc12`, the IC50 in the test on PC-3 worked out at 12.4 µM; in the test on LNCaP, 3.7 µM; with MIA PaCa-2, 8.7 µM; with MDA-MB-231, 1 µM; in the test on MCF7 it was 3.2 µM; with DU-145, 3.6 µM.
Consider `COc1ccc2c(c1)c(/C=N\NC(=O)c1c[nH]c3ccccc13)cn2Cc1ccc(Cl)cc1`, for which the IC50 in the test on PC-3 is 30.3 µM; in the test on LNCaP, over 100 µM; in the test with MIA PaCa-2, 26.7 µM; with MDA-MB-231, 82.7 µM; with MCF7, 8.7 µM; in the test with DU-145, 50 µM.
Take `O=C(N/N=C\c1cn(Cc2ccc(Cl)cc2)c2cc(F)ccc12)c1c[nH]c2ccccc12`: the IC50 in the test on PC-3 amounted to 19.5 µM; in the test with LNCaP it was 55.2 µM; in the test on MIA PaCa-2, 18 µM; in the test on MDA-MB-231, 5.3 µM; in the test on MCF7 it was 6 µM; in the test on DU-145 it was 18.6 µM.
Regarding `COc1ccc2c(c1)c(/C=N\NC(=O)c1c[nH]c3ccc(Br)cc13)cn2Cc1ccc(Cl)cc1`, the IC50 is 15.9 µM with PC-3; over 100 µM in the test on LNCaP; 26.3 µM in the test on MIA PaCa-2; 5 µM in the test with MDA-MB-231; 29.1 µM in the test on MCF7; 57 µM with DU-145.
Turning to `O=C(N/N=C\c1cn(Cc2ccc(Cl)cc2)c2cc(F)ccc12)c1c[nH]c2ccc(Br)cc12`, the IC50 with PC-3 was found to be 12.4 µM; in the test with LNCaP, 24.8 µM; with MIA PaCa-2 it was 10.6 µM; in the test on MDA-MB-231, 5.1 µM; with MCF7, 8.3 µM; in the test with DU-145, 12.5 µM.
On to `COc1ccc(Cn2cc(/C=N\NC(=O)c3c[nH]c4ccccc34)c3ccccc32)cc1`, for which the IC50 in the test on PC-3 amounted to 14.6 µM; with LNCaP it was 31.9 µM; in the test on MIA PaCa-2, 41.6 µM; with MDA-MB-231, 15.1 µM; in the test with MCF7 it was 12.4 µM; in the test with DU-145 it was 43.9 µM.
For the molecule `COc1ccc(Cn2cc(/C=N\NC(=O)c3c[nH]c4ccccc34)c3cc(OC)ccc32)cc1`, the IC50 in the test with PC-3 is 13.6 µM; in the test with LNCaP, over 100 µM; in the test on MIA PaCa-2, 30.5 µM; in the test on MDA-MB-231, 9.8 µM; in the test on MCF7, 15 µM; in the test with DU-145, 19.1 µM.
Turning to `COc1ccc(Cn2cc(/C=N\NC(=O)c3c[nH]c4ccccc34)c3ccc(F)cc32)cc1`, the IC50 with PC-3 is 18.4 µM; with LNCaP, over 100 µM; with MIA PaCa-2, 43.3 µM; in the test on MDA-MB-231 it was 71.2 µM; with MCF7, 13.1 µM; with DU-145, 16.2 µM.
In the case of `COc1ccc(Cn2cc(/C=N\NC(=O)c3c[nH]c4ccc(Br)cc34)c3ccc(F)cc32)cc1`, the IC50 in the test with PC-3 is 21.8 µM; with LNCaP it was over 100 µM; with MIA PaCa-2, 45.5 µM; in the test with MDA-MB-231 it was 99.8 µM; with MCF7, 31.7 µM; in the test on DU-145 it was 67.5 µM.
Turning to `COc1ccc(Cn2cc(/C=N\NC(=O)c3c[nH]c4ccc(Br)cc34)c3cc(OC)ccc32)cc1`, the IC50 in the test on PC-3 is 28 µM; in the test on LNCaP, over 100 µM; in the test with MIA PaCa-2, 44.5 µM; with MDA-MB-231, 61.2 µM; with MCF7, 3.1 µM; in the test with DU-145 it was 84.4 µM.
Take `COc1ccc(Cn2cc(/C=N\NC(=O)c3cn(C)c4ccccc34)c3ccc(F)cc32)cc1`: the IC50 came to 12.8 µM in the test on PC-3; 9.6 µM in the test on LNCaP; 55.8 µM in the test on MIA PaCa-2; 17.7 µM in the test with MDA-MB-231; 22.6 µM with MCF7; 15.2 µM with DU-145.
For the molecule `Cn1cc(C(=O)N/N=C\c2cn(Cc3ccc(Cl)cc3)c3cc(F)ccc23)c2ccccc21`, the 50% inhibitory concentration (IC50) with PC-3 is 22.1 µM; in the test with LNCaP, over 100 µM; with MIA PaCa-2, 50.4 µM; in the test on MDA-MB-231, over 100 µM; with MCF7, 90.6 µM; with DU-145, 84.2 µM.
As to `COc1ccc2c(c1)c(/C=N\NC(=O)c1cn(C)c3ccccc13)cn2Cc1ccc(Cl)cc1`, the IC50 was 21.2 µM in the test with PC-3; over 100 µM in the test on LNCaP; 56.4 µM in the test with MIA PaCa-2; over 100 µM in the test on MDA-MB-231; 99.1 µM with MCF7; 93 µM with DU-145.
Regarding `COc1cccc2c1C(=O)c1c(O)c3c(c(O)c1C2=O)C[C@@](O)(C(=O)CO)C[C@@H]3O[C@H]1C[C@H](N)[C@H](O)[C@H](C)O1` [DOXORUBICIN], the IC50 in the test with PC-3 came to 62.3 µM; in the test on LNCaP, 5.23 µM; with MIA PaCa-2, 18.2 µM; in the test with MDA-MB-231 it was 3.07 µM; in the test on MCF7, 11.7 µM; in the test with DU-145, 15.7 µM.
